SMILES strings stand for the structures. pEC50: −log10 of the molar value. Values after ≈ are worked out from the molar mass of the structure shown.

Series [1] is described as follows: Half life in mouse. It counts as ADME, organism-based. The settings on record: in vivo.
Series [2] in a line: Solubility of the compound in 50% PEG400/ 50% PBS solution. Format: physicochemical.
For series [3], the target named is T1, Glucose-dependent insulinotropic receptor (Homo sapiens, UniProt Q8TDV5).
T1 sequence (Q8TDV5 whole entry): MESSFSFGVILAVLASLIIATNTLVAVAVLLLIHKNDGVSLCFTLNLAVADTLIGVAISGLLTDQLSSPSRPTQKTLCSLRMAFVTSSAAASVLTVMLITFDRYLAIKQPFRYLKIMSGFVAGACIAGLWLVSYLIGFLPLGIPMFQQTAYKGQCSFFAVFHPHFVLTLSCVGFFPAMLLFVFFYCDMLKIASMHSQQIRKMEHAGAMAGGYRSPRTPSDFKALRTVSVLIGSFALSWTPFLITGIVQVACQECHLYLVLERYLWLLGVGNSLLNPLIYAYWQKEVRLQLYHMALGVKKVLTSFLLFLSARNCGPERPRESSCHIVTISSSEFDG
As to the kind of experiment: Agonist activity at human GPR119.

The nature of series [4]: Half life in human liver microsomes. It counts as ADME.
Series [5] can be described thus: Solubility of the compound at pH 6.5. Format: physicochemical. The following applies: buffer.
A short description of series [6]: Half life in Sprague-Dawley rat at 5 mg/kg, po. Format: ADME, organism-based. The arrangement: dose 5 mg/kg, route oral. The settings on record: Sprague-Dawley, in vivo.
Series [7] addresses T2, Glucose-dependent insulinotropic receptor (Homo sapiens) (UniProt Q8TDV5).
T2 sequence (whole entry): T1 sequence (Q8TDV5 whole entry)
As to the kind of experiment: Intrinsic activity at human GPR119 relative to control.

Broadly, the half-life is the time in which the quantity being followed falls by half. Lower therefore signals fast loss. By solubility is commonly meant how much of the substance goes into solution per volume. Usually pEC50 stands for the EC50 on a negative log10 scale, so that one unit is a factor of ten. Take `CS(=O)(=O)c1ccc(-n2cc(Cl)c(OC3CCN(c4ncc(C(F)(F)F)cn4)CC3)cc2=O)cc1F`: the half-life is 27 min in series [1], greater than 120 min in series [4] and greater than 48 min in series [6]. The solubility in series [2] is 31 µg/mL (≈ 56.7 µM); in series [5], less than 1 µg/mL. This molecule had a pEC50 in series [3] of 7.80.
In turn, `CCCc1cnc(N2CCC(Oc3ccn(-c4ccc(-n5ccnc5)cc4)c(=O)c3)CC2)nc1` yielded an Intrinsic activity in series [7] of 0.8.
In the case of `CCCc1cnc(N2CCC(Oc3cc(=O)n(-c4ccc(S(C)(=O)=O)cc4)cc3C#N)CC2)nc1`, the Intrinsic activity in series [7] is 0.8. Further, in series [3], the pEC50 was 7.92.
Regarding `CS(=O)(=O)c1ccc(-n2cc(Cl)c(OC3CCN(c4ncc(Cl)cn4)CC3)cc2=O)cc1`, the half-life is 11 min in series [1], 59 min in series [4] and 9 min in series [6]. The solubility in series [2] was 7 µg/mL (≈ 14.1 µM); in series [5], less than 1 µg/mL. This molecule also gave a negative logarithm of the EC50 (pEC50) in series [3] of 7.74.
As for `CC(C)OC(=O)N1CCCC(Oc2ccn(-c3ccc(S(C)(=O)=O)cc3)c(=O)c2)CC1` (stereo not given), the Intrinsic activity in series [7] was 0.7. In series [3], this molecule had a pEC50 of 5.96.
For `CCc1cnc(N2CCC(Oc3ccn(-c4ccc(S(C)(=O)=O)cc4)c(=O)c3)CC2)nc1`, in that order: 0.8 and 7.24.
Molecule `CCCc1cnc(N2CCC(Oc3cc(=O)n(-c4ccc(S(C)(=O)=O)cc4)cc3Cl)CC2)nc1` showed an Intrinsic activity in series [7] of 0.8.
As for `CS(=O)(=O)c1ccc(-n2cc(Cl)c(OC3CCN(c4ncc(C(F)(F)F)cn4)CC3)cc2=O)c(F)c1`, the half-life in series [1] is 30 min; in series [4], greater than 120 min; in series [6], greater than 72 min. Besides, the solubility in series [2] stood at 122 µg/mL (≈ 223 µM); in series [5], 1 µg/mL (≈ 1.83 µM). In series [3], the pEC50 was 7.92.
Molecule `CCCc1cnc(N2CCC(Oc3ccn(-c4ccc([S+](C)[O-])cc4)c(=O)c3)CC2)nc1` (racemic) came in with an Intrinsic activity in series [7] of 0.9. In series [3], this molecule showed a negative-log EC50 (pEC50) of 7.39.
On the same counts, the results for `CC(C)OC(=O)N1CCC(COc2ccn(-c3ccc(S(C)(=O)=O)cc3)c(=O)c2)CC1` are 0.7 and 5.77.
As to `CS(=O)(=O)c1ccc(-n2cc(Cl)c(OC3CCN(c4ncc(Cl)cn4)CC3)cc2=O)cc1F`, the half-life in series [1] was 18 min; in series [4] it was 39 min; in series [6] it was 12 min. Also, the figures for the solubility in series [2] and in series [5] were 199 µg/mL (≈ 388 µM) and 3 µg/mL (≈ 5.84 µM), respectively. Besides, the pEC50 in series [3] was 7.89.
Molecule `Cc1ccnc(N2CCC(Oc3ccn(-c4ccc(S(C)(=O)=O)cc4)c(=O)c3)CC2)n1` displayed an Intrinsic activity in series [7] of 0.3. This molecule gave a pEC50 in series [3] of 6.14.
`CCCc1cnc(N2CCC(Oc3ccn(-c4ccc(S(C)(=O)=O)cc4)c(=O)c3Cl)CC2)nc1` gave a pEC50 in series [3] of less than 5.00.
For `CC(C)OC(=O)N1CCC(Oc2ccn(-c3ccc(S(C)(=O)=O)cc3)c(=O)c2)CC1`, the Intrinsic activity in series [7] is 0.8. In series [3], this molecule gave a pEC50 of 6.88.
For `CCc1ccc(N2CCC(Oc3ccn(-c4ccc(S(C)(=O)=O)cc4)c(=O)c3)CC2)nc1`, in that order: 0.6 and 6.98.
In series [3], `CC(C)OC(=O)N1CCC(Oc2ccn(-c3ccc(S(C)(=O)=O)cc3)c(=O)c2)C1` (stereo not given) gave a pEC50 of less than 5.00.
`CCCc1cnc(N2CCC(Oc3ccn(-c4ccc(C#N)cc4)c(=O)c3)CC2)nc1` returned an Intrinsic activity in series [7] of 0.8. Also, the pEC50 in series [3] is 7.96.
Consider `CS(=O)(=O)c1ccc(-n2cc(Cl)c(OC3CCN(c4ncc(C(F)(F)F)cn4)CC3)cc2=O)cc1`, for which the half-life in series [1] was 16 min; in series [4] it was greater than 120 min; in series [6], greater than 72 min. Also, the solubility was 3 µg/mL (≈ 5.67 µM) in series [2] and less than 1 µg/mL in series [5]. In addition, the negative logarithm of the EC50 (pEC50) in series [3] is 7.89.
In the case of `CC(C)OC(=O)N1[C@@H]2CC[C@@H]1CC(Oc1ccn(-c3ccc(S(C)(=O)=O)cc3)c(=O)c1)C2` (relative stereo; 13) [listing 1 of 2 here], in series [7], the Intrinsic activity is 1.
As for `CCCc1cnc(N2CCC(Oc3ccn(-c4ccc(S(C)(=O)=O)cc4)c(=O)c3)CC2)nc1`, the Intrinsic activity in series [7] is 0.8. This molecule also had a negative logarithm of the EC50 (pEC50) in series [3] of 7.80.
In series [3], `CCCc1cnc(N2CCC(Oc3cc(C)n(-c4ccc(S(C)(=O)=O)cc4)c(=O)c3)CC2)nc1` showed a negative-log EC50 (pEC50) of less than 5.00.
On the same count and under the same terms, the figure for `CC(C)OC(=O)N1[C@@H]2CC[C@@H]1CC(Oc1ccn(-c3ccc(S(C)(=O)=O)cc3)c(=O)c1)C2` (relative stereo; 13) [listing 2 of 2 here] is 6.06.
`CS(=O)(=O)c1ccc(-n2ccc(OC3CCN(c4ncc(C5CC5)cn4)CC3)cc2=O)cc1` displayed an Intrinsic activity in series [7] of 0.9. The molecule further showed a pEC50 in series [3] of 7.64.
The molecule `CC(C)OC(=O)N1CC(COc2ccn(-c3ccc(S(C)(=O)=O)cc3)c(=O)c2)C1` showed a pEC50 in series [3] of less than 5.00.
`CCCc1cnc(N2CCC(Oc3cc(=O)n(-c4ccc(S(C)(=O)=O)cc4)cc3-c3ccccc3)CC2)nc1` had a negative logarithm of the EC50 (pEC50) in series [3] of less than 5.00.
`CC(C)OC(=O)N1[C@@H]2CC[C@@H]1CC(Oc1ccn(-c3ccc(S(C)(=O)=O)cc3)c(=O)c1)C2` (relative stereo; 14): the Intrinsic activity in series [7] worked out at 0.7.
In turn, `CCCc1cnc(N2CCC(Oc3ccn(-c4ccc(-n5cncn5)cc4)c(=O)c3)CC2)nc1` yielded an Intrinsic activity in series [7] of 0.8. The negative logarithm of the EC50 (pEC50) in series [3] was 7.20.
On the same counts, the results for `CCCc1cnc(N2CCC(Oc3ccn(-c4ccc(N5CCCC5=O)cc4)c(=O)c3)CC2)nc1` are 0.8 and 7.49.
With `CCCc1cnc(N2CCC(Oc3ccn(-c4ccc(NC(=O)C(C)(C)C)cc4)c(=O)c3)CC2)nc1`, in series [7], the Intrinsic activity was determined as 0.8. Further, the negative logarithm of the EC50 (pEC50) in series [3] was 7.43.
`CCCc1cnc(N2CCC(Oc3cc(=O)n(-c4ccc(S(C)(=O)=O)cc4)cc3C)CC2)nc1`: in series [7], the Intrinsic activity came to 0.9. The same molecule showed a pEC50 in series [3] of 7.51.
In turn, `CS(=O)(=O)c1ccc(-n2ccc(OC3CCN(C(=O)Oc4ccccc4)CC3)cc2=O)cc1` yielded an Intrinsic activity in series [7] of 0.9. In series [3], the negative-log EC50 (pEC50) is 6.89.
For `CCCc1cnc(N2CCC(Oc3ccn(-c4ccc(S(C)(=O)=O)c(F)c4)c(=O)c3)CC2)nc1`, in that order: 0.8 and 8.05.
For `COc1cnc(N2CCC(Oc3ccn(-c4ccc(S(C)(=O)=O)cc4)c(=O)c3)CC2)nc1`, in that order: 1 and 6.93.
In series [7], `CC(C)(C)OC(=O)N1CCC(Oc2ccn(-c3ccc(S(C)(=O)=O)cc3)c(=O)c2)CC1` gave an Intrinsic activity of 0.8. Besides, the pEC50 in series [3] is 6.74.
With `CC(C)OC(=O)N1CCC(COc2ccn(-c3ccc(S(C)(=O)=O)cc3)c(=O)c2)C1` (stereo not given), in series [3], the negative logarithm of the EC50 (pEC50) was less than 5.00.
The same measure, in the same setting: to `CC(C)OC(=O)N1CC(Oc2ccn(-c3ccc(S(C)(=O)=O)cc3)c(=O)c2)C1` belongs less than 5.00.
